Results: patent US7728019B2, “Biphenylcarboxamides” (priority 2002, dated 2010)

Legend:
[1] = logP determination by HPLC on reverse-phase column (C 18), acidic range pH 2.3; type: physicochemical; conditions: for chromatographic logP: reverse-phase HPLC column (C 18)
Procedure: The logP values given in Table 1 were determined with EEC Directive 79/831 Annex V.A8 by HPLC (High Performance Liquid Chromatography) on a reverse-phase column (C 18). Temperature: 43° C. Mobile phases for the determination in the acidic range (pH 2.3): 0.1% aqueous phosphoric acid, acetonitrile; linear gradient from 10% acetonitrile to 90% acetonitrile. Calibration was carried out using unbranched alkan-2-ones (having 3 to 16 carbon atoms) with known logP values (determination of the logP values by the retention times using linear interpolation between two successive alkanones).

[2] = system: Alternaria solani; test: Alternaria test (tomato)/protective; type: in vivo; conditions: tomato plants, protective; application rate 750 g/ha; evaluation 7 days after inoculation
Procedure: (§1) To produce a suitable preparation of active compound, 1 part by weight of active compound is mixed with the stated amounts of solvent and emulsifier, and the concentrate is diluted with water to the desired concentration.
To test for protective activity, young tomato plants are sprayed with the preparation of active compound at the stated application rate. 1 day after the treatment, the plants are inoculated with a spore suspension of Alternaria solani and then remain at 100% relative atmospheric humidity and 20° C. for 24 hours. The plants then remain at 96% relative atmospheric humidity and a temperature of 20° C.
Evaluation is carried out 7 days after the inoculation. 0% means an efficacy which corresponds to that of the control, whereas an efficacy of 100% means that no infection is observed.

[3] = system: apple scab pathogen Venturia inaequalis; test: Venturia test (apple)/protective; type: in vivo; conditions: apple plants, protective; application rate 100 g/ha; evaluation 10 days after inoculation
Procedure: (§2) To produce a suitable preparation of active compound, 1 part by weight of active compound is mixed with the stated amounts of solvents and emulsifier, and the concentrate is diluted with water to the desired concentration.
To test for protective activity, young plants are sprayed with the preparation of active compound at the stated application rate. After the spray coating has dried on, the plants are inoculated with an aqueous conidia suspension of the apple scab pathogen Venturia inaequalis and then remain in an incubation cabin at about 20° C. and 100% relative atmospheric humidity for 1 day.
The plants are then placed in a greenhouse at about 21° C. and a relative atmospheric humidity of about 90%.
(§3) Evaluation is carried out 10 days after the inoculation. 0% means an efficacy which corresponds to that of the control, whereas an efficacy of 100% means that no infection is observed.

[4] = system: Puccinia recondita; test: Puccinia test (wheat)/protective; type: in vivo; conditions: 240 h, wheat plants, protective, application rate 500 g/ha, evaluation 10 days after inoculation, read-out: Efficacy in %
Procedure: as §1
To test for protective activity, young plants are inoculated with a spore suspension of Puccinia recondita in a 0.1% strength aqueous agar solution. After the spray coating has dried on, the plants are sprayed with the preparation of active compound at the stated application rate. The plants remain in an incubation cabin at 20° C. and 100% relative atmospheric humidity for 24 hours.
The plants are then placed in a greenhouse at a temperature of about 20° C. and a relative atmospheric humidity of 80% to promote the development of rust pustules.
as §3

[5] = system: Botrytis cinerea; test: Botrytis test (bean)/protective; type: in vivo; conditions: 48 h, bean plants, protective, application rate 500 g/ha, evaluation 2 days after inoculation, read-out: Efficacy in %
Procedure: as §2
To test for protective activity, young plants are sprayed with the preparation of active compound at the stated application rate. After the spray coating has dried on, 2 small pieces of agar colonized by Botrytis cinerea are placed onto each leaf. The inoculated plants are placed in a dark chamber at about 20° C. and 100% relative atmospheric humidity.
2 days after the inoculation, the size of the infected areas on the leaves is evaluated. 0% means an efficacy which corresponds to that of the control, whereas an efficacy of 100% means that no infection is observed.

[6] = HPLC, C 18 reverse-phase, 43° C.

Structure (SMILES) | logP (pH 2.3) [1, 6] | also measured
CC#CCO/N=C(/C)c1ccc(-c2ccccc2NC(=O)c2c(C)nn(C)c2F)cc1 [Compound 37] | 3.63 | 
C/C(=N\OCC=C(Cl)Cl)c1ccc(-c2ccccc2NC(=O)c2cn(C)nc2C)cc1 [Compound 54, N-(4′-{1-[3,3-dichloroallyloxyimino]ethyl}biphenyl-2-yl)-1,3-dimethyl-1H-pyrazole-4-carboxamide] |  | chromatographic logP [1]: 3.97
C=CCO/N=C\c1ccc(-c2ccccc2NC(=O)c2cccnc2Cl)cc1 [Compound 12] |  | chromatographic logP [1, 6]: 3.3; Efficacy in % [2]: 100%
Cn1cc(C(=O)Nc2ccccc2-c2ccc(/C=N\OCC3CC3)cc2)c(C(F)(F)F)n1 [Compound 4] |  | chromatographic logP [1, 6]: 3.77; Efficacy in % [3]: 91%
CC#CCO/N=C(/C)c1ccc(-c2ccccc2NC(=O)c2cccnc2Cl)cc1 [Compound 41] | 3.48 | 
C=CC(C)O/N=C(/C)c1ccc(-c2ccccc2NC(=O)c2cccnc2Cl)cc1 (stereo not shown) [Compound 42] | 2.89 | 
C=CCO/N=C(/C)c1ccc(-c2ccccc2NC(=O)C2=C(C)OCCS2)cc1 [Compound 39] | 4.38 | 
C=CC(C)O/N=C(/C)c1ccc(-c2ccccc2NC(=O)c2ccoc2C)cc1 (stereo not shown) [Compound 47] | 4.52 | 
C=C(C)CO/N=C(/C)c1ccc(-c2ccccc2NC(=O)c2cn(C)nc2C(F)(F)F)cc1 [Compound 48] | 4.14 | 
C#CCO/N=C(/C)c1ccc(-c2ccccc2NC(=O)c2cn(C)nc2C(F)F)cc1 [Compound 72] |  | chromatographic logP [1, 6]: 3.14; pest or weed control at 500 g/ha [4]: 100%
CC(=O)c1ccc(-c2ccccc2NC(=O)c2cccnc2Cl)cc1 [VIII-1, N-(4′-acetyl-biphenyl-2-yl)-2-chloronicotinamide] |  | chromatographic logP [1]: 2.12
C#CCO/N=C(\C)c1ccc(-c2ccccc2NC(=O)c2cn(C)nc2C)cc1 [Compound 78] | 2.75 | 
C#CCO/N=C(\C)c1ccc(-c2ccccc2NC(=O)c2ccoc2C)cc1 [Compound 77] | 3.59 | 
C=CC(C)O/N=C(/C)c1ccc(-c2ccccc2NC(=O)c2ccccc2C(F)(F)F)cc1 (stereo not shown) [Compound 59] | 4.65 | 
CC(=O)c1ccc(-c2ccccc2N)cc1 [XIV-1, 1-(2′-aminobiphenyl-4-yl)ethanone] |  | chromatographic logP [1]: 1.8
C=CC(C)O/N=C(/C)c1ccc(-c2ccccc2NC(=O)c2cn(C)cc2C(F)(F)F)cc1 (stereo not shown) [Compound 57] | 4.41 | 
C#CCO/N=C(/C)c1ccc(-c2ccccc2NC(=O)c2sc(C)nc2C(F)F)cc1 [Compound 69] |  | chromatographic logP [1, 6]: 3.45; pest or weed control at 500 g/ha [4]: 100%
C#CCO/N=C(\C)c1ccc(-c2ccccc2NC(=O)c2cn(C)cc2C(F)(F)F)cc1 [Compound 75] | 3.6 | 
C=CCO/N=C(\C)c1ccc(-c2ccccc2NC(=O)c2c(C)nn(C)c2F)cc1 [Compound 17, N-(4′-{1-(allyloxyimino)-ethyl}-biphenyl-2-yl)-5-fluoro-1,3-dimethyl-1H-pyrazole-4-carboxamide] |  | chromatographic logP [1]: 3.8
C=C(C)CO/N=C(/C)c1ccc(-c2ccccc2NC(=O)c2ccoc2C)cc1 [Compound 51] | 4.51 | 
C=CCO/N=C(/C)c1ccc(-c2ccccc2NC(=O)c2ccoc2C)cc1 [Compound 38] | 4.14 | 
CC#CCO/N=C(/C)c1ccc(-c2ccccc2NC(=O)c2ccoc2C)cc1 [Compound 50] | 3.95 | 
C#CCO/N=C(\C)c1ccc(-c2ccccc2NC(=O)c2ccccc2I)cc1 [Compound 79] | 3.81 | 
Cn1cc(C(=O)Nc2ccccc2-c2ccc(/C=N\OCC3CC3)cc2)c(C(F)F)n1 [Compound 7] |  | chromatographic logP [1, 6]: 3.53; Efficacy in % [3]: 100%; pest or weed control at 500 g/ha [5]: 96%; pest or weed control at 500 g/ha [4]: 100%
C=C(C)CO/N=C(/C)c1ccc(-c2ccccc2NC(=O)c2sc(C)nc2C(F)(F)F)cc1 [Compound 44] | 3.49 | 

Structure (SMILES) | logP (pH 2.3) [1, 6] | also measured
C#CCO/N=C(\C)c1ccc(-c2ccccc2NC(=O)c2sc(C)nc2C(F)(F)F)cc1 [Compound 67] | 3.72 | 
C=CCO/N=C\c1ccc(-c2ccccc2NC(=O)c2cn(C)nc2C(F)F)cc1 [Compound 10] |  | chromatographic logP [1, 6]: 3.32; Efficacy in % [3]: 100%; pest or weed control at 500 g/ha [5]: 95%; pest or weed control at 500 g/ha [4]: 100%
C/C(=N/OCC=C(Cl)Cl)c1ccc(-c2ccccc2NC(=O)c2cccnc2Cl)cc1 [Compound 63, 2-chloro-N-{4′-[1-(3,3-dichloroallyloxyimino)ethyl]-biphenyl-2-yl}nicotinamide] |  | chromatographic logP [1]: 4.43
C=CC(C)O/N=C(/C)c1ccc(-c2ccccc2NC(=O)c2cn(C)nc2C(F)(F)F)cc1 (stereo not shown) [Compound 46] | 4.15 | 
CC#CCO/N=C(/C)c1ccc(-c2ccccc2NC(=O)c2cn(C)nc2C(F)(F)F)cc1 [Compound 40] |  | chromatographic logP [1, 6]: 3.67; pest or weed control at 500 g/ha [4]: 100%
C#CCO/N=C(\C)c1ccc(-c2ccccc2NC(=O)c2ccccc2C(F)(F)F)cc1 [Compound 73] | 3.83 | 
C#CCO/N=C/c1ccc(-c2ccccc2NC(=O)c2cccnc2Cl)cc1 [Compound 82] | 2.92 | 
C=C(C)CO/N=C(/C)c1ccc(-c2ccccc2NC(=O)c2cccnc2Cl)cc1 [Compound 60] | 3.95 | 
C#CCO/N=C(\C)c1ccc(-c2ccccc2NC(=O)c2ccccc2Br)cc1 [Compound 80] | 3.74 | 
Cc1nc(C(F)F)c(C(=O)Nc2ccccc2-c2ccc(/C=N\OCC3CC3)cc2)s1 [Compound 8] |  | chromatographic logP [1, 6]: 3.87; Efficacy in % [3]: 100%; pest or weed control at 500 g/ha [5]: 85%
C#CCO/N=C/c1ccc(-c2ccccc2NC(=O)c2sc(C)nc2C(F)(F)F)cc1 [Compound 83] | 3.48 | 
C#CCO/N=C(\C)c1ccc(-c2ccccc2NC(=O)c2cn(C)nc2C(F)(F)F)cc1 [Compound 70] | 3.36 | 
C#CCO/N=C(\C)c1ccc(-c2ccccc2NC(=O)C2=C(C)OCCS2)cc1 [Compound 74] | 3.81 | 
C=C(C)CO/N=C(/C)c1ccc(-c2ccccc2NC(=O)c2cn(C)nc2C)cc1 [Compound 52] | 3.52 | 
C=CCO/N=C/c1ccc(-c2ccccc2NC(=O)c2sc(C)nc2C(F)F)cc1 [Compound 9, N-[4′-(allyloxyimino-methyl)-biphenyl-2-yl]-4-difluoromethyl-2-methylthiazole-5-carboxamide] |  | chromatographic logP [1, 6]: 3.65; Efficacy in % [3]: 100%; pest or weed control at 500 g/ha [5]: 95%
C/C(=N/OCC=C(Cl)Cl)c1ccc(-c2ccccc2NC(=O)c2sc(C)nc2C(F)(F)F)cc1 [Compound 62] | 3.81 | 
CC#CCO/N=C(/C)c1ccc(-c2ccccc2NC(=O)c2cn(C)nc2C)cc1 [Compound 55] |  | chromatographic logP [1, 6]: 3.06; pest or weed control at 500 g/ha [4]: 100%
C#CCO/N=C(\C)c1ccc(-c2ccccc2NC(=O)c2cccnc2Cl)cc1 [Compound 68] | 3.16 | 
C#CCO/N=C(\C)c1ccc(-c2ccccc2NC(=O)c2ccccc2Cl)cc1 [Compound 81] | 3.73 | 
C=CC(C)O/N=C(/C)c1ccc(-c2ccccc2NC(=O)c2cn(C)nc2C)cc1 (stereo not shown) [Compound 53] | 3.53 | 
C#CCO/N=C(\C)c1ccc(-c2ccccc2NC(=O)c2c(C)nn(C)c2F)cc1 [Compound 71] | 3.27 | 
C=C(C)CO/N=C(/C)c1ccc(-c2ccccc2NC(=O)c2ccccc2C(F)(F)F)cc1 [Compound 58] | 4.64 | 
C=C(C)CO/N=C(/C)c1ccc(-c2ccccc2NC(=O)c2c(C)nn(C)c2F)cc1 [Compound 36] | 4.18 | 
C/C(=N/OCC=C(Cl)Cl)c1ccc(-c2ccccc2NC(=O)c2ccoc2C)cc1 [Compound 61] | 4.98 | 
O=C(Nc1ccccc1-c1ccc(/C=N\OCC2CC2)cc1)c1cccnc1Cl [Compound 3] |  | chromatographic logP [1, 6]: 3.57; pest or weed control at 500 g/ha [5]: 95%
